Here are results for 59 molecules from PubChem BioAssay AID743310 (Sanford-Burnham Center for Chemical Genomics, 2014).

The structures appear in SMILES notation. The source made the active and inactive calls.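 How the source made its calls: active means IC50 at or below 20 µM; inactive means the rest.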

This test deals with Dual specificity protein phosphatase 3 (Homo sapiens) (UniProt P51452). Briefly: DUSP3 enzyme activity inhibitors – biochemical, fluorescence, OMFP substrate, selectivity assay for LMPTP inhibitor project, SAR follow-up (AID 743310). The conditions noted are these: recombinant VHR, OMFP fluorogenic substrate, 50 min.
Chain of Dual specificity protein phosphatase 3 (Homo sapiens) (P51452 whole entry, looked up): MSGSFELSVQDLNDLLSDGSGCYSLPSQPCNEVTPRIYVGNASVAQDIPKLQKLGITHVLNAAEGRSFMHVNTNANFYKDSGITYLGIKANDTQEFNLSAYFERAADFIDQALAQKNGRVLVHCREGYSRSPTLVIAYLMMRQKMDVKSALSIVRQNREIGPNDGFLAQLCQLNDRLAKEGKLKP
The IC50 is the midpoint of a concentration-inhibition curve. As for `c1ccc(-c2cc(NCCCN3CCOCC3)c3ccccc3n2)cc1`, the IC50 was > 80 µM (inactive).

Turning to `CCN(CC)c1nc(-c2ccccc2)nc2ccccc12`, the IC50 was > 80 µM (inactive).

As for `c1ccc(-c2cc(NCCN3CCCCC3)c3ccccc3n2)cc1`, the IC50 is > 80 µM (inactive).

With `c1ccc(-c2cc(NCCN3CCCC3)c3ccccc3n2)cc1`, the IC50 is > 80 µM (inactive).

Regarding `COc1ccc(-c2cc(NCCCN3CCCCC3)c3ccccc3n2)cc1`, the IC50 was > 80 µM (inactive).

Consider `c1ccc(-c2nc(NCc3cccnc3)c3ccccc3n2)cc1`, for which the IC50 was > 80 µM (inactive).

With `COc1ccccc1CNc1ncnc2ccsc12`, the IC50 is > 80 µM (inactive).

For `Cc1cccc(-c2nc(NCCCN3CCOCC3)c3ccccc3n2)c1`, the IC50 was > 80 µM (inactive).

In the case of `Fc1ccccc1-c1nc(NC2CCCC2)c2ccccc2n1`, the IC50 is > 80 µM (inactive).

For `CC(C)OCCCNc1nc(-c2ccccc2)nc2ccccc12`, the IC50 was > 80 µM (inactive).

On to `Cc1ccc(-c2nc(NCc3cccnc3)c3ccccc3n2)cc1`, for which the IC50 is > 80 µM (inactive).

`c1ccc(-c2nc(NC3CCCC3)c3ccccc3n2)cc1`: the IC50 was > 80 µM (inactive).

For `Cc1c(CCC(=O)O)c(=O)oc2c(C)c(OCc3ccccc3Cl)ccc12`, the 50% inhibitory concentration (IC50) was 5.21 µM.

In the case of `c1ccc2c(NCCCN3CCCCC3)cc(-c3ccncc3)nc2c1`, the IC50 is > 80 µM (inactive).

On to `Cc1ccc2nc(-c3ccccc3)cc(NCCCN3CCCCC3)c2c1`, for which the IC50 was > 80 µM (inactive).

With `COc1cccc(-c2cc(NCCCN3CCCCC3)c3ccccc3n2)c1`, the IC50 was > 80 µM (inactive).

For `CCc1nc(N)nc(N)c1-c1ccc(Cl)cc1`, the IC50 is > 80 µM (inactive).

As to `Fc1ccc2nc(-c3ccccc3)cc(NCCCN3CCCCC3)c2c1`, the IC50 was > 80 µM (inactive).

For `CN(C)CCNc1nc(-c2ccccc2)nc2ccccc12`, the IC50 is > 80 µM (inactive).

For `c1ccc(-c2nc(NCCN3CCCCC3)c3ccccc3n2)cc1`, the IC50 was > 80 µM (inactive).

As for `COc1ccccc1-c1cc(NCCCN2CCCCC2)c2ccccc2n1`, the IC50 was > 80 µM (inactive).

As for `c1ccc(-c2nc(NCCCN3CCOCC3)c3ccccc3n2)cc1`, the IC50 was > 80 µM (inactive).

As to `Fc1ccccc1-c1nc(NCCCN2CCOCC2)c2ccccc2n1`, the IC50 was > 80 µM (inactive).

In the case of `Cc1ccc(-c2nc(NCCN3CCOCC3)c3ccccc3n2)cc1`, the IC50 is > 80 µM (inactive).

Consider `c1ccc(-c2cc(SCCCN3CCCCC3)c3ccccc3n2)cc1`, for which the IC50 was > 80 µM (inactive).

As for `c1ccc(-c2nc(NC3CCCCC3)c3ccccc3n2)cc1`, the IC50 is > 80 µM (inactive).

Turning to `c1ccc(-c2nc(N3CCSCC3)c3ccccc3n2)cc1`, the IC50 was > 80 µM (inactive).

For `c1ccc(-c2nc(NCCN3CCOCC3)c3ccccc3n2)cc1`, the IC50 is > 80 µM (inactive).

Take `Clc1cccc(Cl)c1Cn1cnc(=NCc2ccco2)c2[nH]cnc21`: the IC50 was > 80 µM (inactive).

`FC(F)(F)c1cccc(-c2cc(NCCCN3CCCCC3)c3ccccc3n2)c1`: the IC50 is > 80 µM (inactive).

Regarding `c1ccc(-c2nc(NCCCN3CCCCC3)c3ccccc3n2)cc1`, the IC50 is > 80 µM (inactive).

For the molecule `CC(C)CNc1nc(-c2ccccc2)nc2ccccc12`, the IC50 is > 80 µM (inactive).

As to `c1ccc(-c2nc(NCCCn3ccnc3)c3ccccc3n2)cc1`, the IC50 was > 80 µM (inactive).

On to `Nc1nc(N)c(Cc2ccc(Cl)cc2Cl)c(N)n1`, for which the IC50 is > 80 µM (inactive).

With `Clc1cccc(-c2cc(NCCCN3CCCCC3)c3ccccc3n2)c1`, the IC50 was > 80 µM (inactive).

For the molecule `COc1cc2nc(-c3ccccc3)cc(NCCCN3CCCCC3)c2cc1OC`, the IC50 was > 80 µM (inactive).

For `c1ccc(-c2nc(N3CCCCCC3)c3ccccc3n2)cc1`, the IC50 is > 80 µM (inactive).

In the case of `c1ccc(-c2cc(NCCN3CCOCC3)c3ccccc3n2)cc1`, the IC50 is > 80 µM (inactive).

With `c1ccc(-c2nc(N3CCOCC3)c3ccccc3n2)cc1`, the IC50 was > 80 µM (inactive).

As to `c1ccc(-c2cc(N3CCCCC3)c3ccccc3n2)cc1`, the IC50 is > 80 µM (inactive).

On to `Fc1ccc(-c2cc(NCCCN3CCCCC3)c3ccccc3n2)cc1`, for which the IC50 was > 80 µM (inactive).

For `c1ccc(-c2nc(N3CCCCC3)c3ccccc3n2)cc1`, the IC50 is > 80 µM (inactive).

`CN1CCN(c2nc(-c3ccccc3)nc3ccccc23)CC1`: the IC50 was > 80 µM (inactive).

`Clc1ccccc1-c1cc(NCCCN2CCCCC2)c2ccccc2n1`: the IC50 is > 80 µM (inactive).

Consider `CCCCNc1nc(-c2ccccc2)nc2ccccc12`, for which the IC50 was > 80 µM (inactive).

On to `Cc1ccc(-c2cc(NCCCN3CCCCC3)c3ccccc3n2)cc1`, for which the IC50 is > 80 µM (inactive).

`Fc1cccc(-c2cc(NCCCN3CCCCC3)c3ccccc3n2)c1`: the IC50 was > 80 µM (inactive).

For the molecule `c1ccc(-c2nc(NCCN3CCCC3)c3ccccc3n2)cc1`, the IC50 is > 80 µM (inactive).

As to `Brc1ccc2nc(-c3ccccc3)cc(NCCCN3CCCCC3)c2c1`, the IC50 was > 80 µM (inactive).

Regarding `CN(C)CCNc1cc(-c2ccccc2)nc2ccccc12`, the IC50 is > 80 µM (inactive).

Turning to `O=C(OCCNc1nc(-c2ccccc2)nc2ccccc12)c1ccncc1`, the IC50 is > 80 µM (inactive).

`CC(C)Nc1nc(-c2ccccc2)nc2ccccc12`: the IC50 is > 80 µM (inactive).

Turning to `c1ccc(-c2nc(NC3CC3)c3ccccc3n2)cc1`, the IC50 was > 80 µM (inactive).

On to `Clc1ccc(-c2cc(NCCCN3CCCCC3)c3ccccc3n2)cc1`, for which the IC50 is > 80 µM (inactive).

In the case of `O=C(OCCNc1nc(-c2ccccc2)nc2ccccc12)c1cccnc1`, the IC50 was > 80 µM (inactive).

Turning to `c1ccc(-c2cc(NCCCN3CCCCC3)c3ccccc3n2)cc1`, the IC50 is > 80 µM (inactive).

On to `c1ccc(-c2nc(N3CCCC3)c3ccccc3n2)cc1`, for which the IC50 was > 80 µM (inactive).

Turning to `c1ccc(-c2cc(OCCCN3CCCCC3)c3ccccc3n2)cc1`, the IC50 is > 80 µM (inactive).

As to `CC1CCN(c2nc(-c3ccccc3)nc3ccccc23)CC1`, the IC50 is > 80 µM (inactive).
